System: Lox-IMVI melanoma cell line
Experiment: Lox-IMVI anti-proliferative assay (growth inhibition, Cell Titer-Glo)
Format: cell-based, human
Settings: Homo sapiens; IC50 activity level in the cell-based Lox-IMVI anti-proliferative assay; read-out: Activity
Summary of the method: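 Lox-IMVI cells in RPMI+10% FBS exposed 72 h at 37 °C to 10-point, 3-fold dilutions (0.5 nM–10 μM; 0.2% DMSO final), in duplicate. Viability by Cell Titer-Glo luminescence, with a t0 cell-number reading; data as % of DMSO control; IC50 from a four-parameter logistic fit.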

| Compound | IC50 [nM] |
| --- | --- |
| NC(=O)[C@H]1CC[C@@H](n2c(Nc3ccc(Cl)cc3Cl)nc3cnc(NC4COCC4O)nc32)CC1 (some centres unmarked) [Example 191, (1s,4s)-4-(8-(2,4-dichlorophenylamino)-2-(4-hydroxytetrahydrofuran-3-ylamino)-9H-purin-9-yl)cyclohexanecarboxamide] | > 1000 |
| NC(=O)[C@H]1CC[C@@H](n2c(Nc3cccc(Cl)c3F)nc3cnc(NC4COCC4O)nc32)CC1 (some centres unmarked) [Example 192, (1s,4s)-4-(8-(3-chloro-2-fluorophenylamino)-2-(4-hydroxytetrahydrofuran-3-ylamino)-9H-purin-9-yl)cyclohexanecarboxamide] | > 1000 |
| NC(=O)[C@H]1CC[C@@H](n2c(Nc3c(Cl)cc(F)cc3Cl)nc3cnc(NC4CC5(COC5)C4)nc32)CC1 [Example 193, (1s,4s)-4-(2-(2-oxaspiro[3.3]heptan-6-ylamino)-8-(2,6-dichloro-4-fluorophenylamino)-9H-purin-9-yl)cyclohexanecarboxamide] | > 1000 |
| NC(=O)[C@H]1CC[C@@H](n2c(Nc3ccc(Cl)c(F)c3F)nc3cnc(NC4CC5(COC5)C4)nc32)CC1 [Example 194, (1s,4s)-4-(2-(2-oxaspiro[3.3]heptan-6-ylamino)-8-(4-chloro-2,3-difluorophenylamino)-9H-purin-9-yl)cyclohexanecarboxamide] | > 1000 |
| NC(=O)[C@H]1CC[C@@H](n2c(Nc3c(F)cc(Cl)cc3Cl)nc3cnc(NC4CC5(COC5)C4)nc32)CC1 [Example 195, (1s,4s)-4-(2-(2-oxaspiro[3.3]heptan-6-ylamino)-8-(2,4-dichloro-6-fluorophenylamino)-9H-purin-9-yl)cyclohexanecarboxamide] | 250 to 500 |
| NC(=O)[C@H]1CC[C@@H](n2c(Nc3c(F)ccc(Cl)c3F)nc3cnc(NC4CC5(COC5)C4)nc32)CC1 [Example 196, (1s,4s)-4-(2-(2-oxaspiro[3.3]heptan-6-ylamino)-8-(3-chloro-2,6-difluorophenylamino)-9H-purin-9-yl)cyclohexanecarboxamide] | > 1000 |
| CC(=O)N1CCC(Nc2ncc3nc(Nc4c(Cl)cc(Cl)cc4Cl)n([C@H]4CC[C@@H](C(N)=O)CC4)c3n2)CC1 [Example 197, (1s,4s)-4-(2-(1-acetylpiperidin-4-ylamino)-8-(2,4,6-trichlorophenylamino)-9H-purin-9-yl)cyclohexanecarboxamide] | > 1000 |
| CC(=O)N1CCC(Nc2ncc3nc(Nc4c(F)cc(Cl)cc4Cl)n([C@H]4CC[C@@H](C(N)=O)CC4)c3n2)CC1 [Example 198, (1s,4s)-4-(2-(1-acetylpiperidin-4-ylamino)-8-(2,4-dichloro-6-fluorophenylamino)-9H-purin-9-yl)cyclohexanecarboxamide] | > 1000 |
| NC(=O)[C@H]1CC[C@@H](n2c(Nc3c(F)cc(F)cc3Cl)nc3cnc(N[C@@H]4CCOC4)nc32)CC1 [Example 199, (1S,4s)-4-(8-(2-chloro-4,6-difluorophenylamino)-2-((R)-tetrahydrofuran-3-ylamino)-9H-purin-9-yl)cyclohexanecarboxamide] | 500 to 1000 |
| NC(=O)[C@H]1CC[C@@H](n2c(Nc3c(F)cc(Cl)cc3F)nc3cnc(NC4CCC(F)(F)CC4)nc32)CC1 [Example 200, (1s,4s)-4-(8-(4-chloro-2,6-difluorophenylamino)-2-(4,4-difluorocyclohexylamino)-9H-purin-9-yl)cyclohexanecarboxamide] | 250 to 500 |
| NC(=O)[C@H]1CC[C@@H](n2c(Nc3c(Cl)cc(F)cc3Cl)nc3cnc(NC4CCC(F)(F)CC4)nc32)CC1 [Example 201, (1s,4s)-4-(8-(2,6-dichloro-4-fluorophenylamino)-2-(4,4-difluorocyclohexylamino)-9H-purin-9-yl)cyclohexanecarboxamide] | 250 to 500 |
| NC(=O)[C@H]1CC[C@@H](n2c(Nc3c(Cl)cc(F)cc3Cl)nc3cnc(N[C@H]4CCCOC4)nc32)CC1 [Example 202, (1R,4s)-4-(8-(2,6-dichloro-4-fluorophenylamino)-2-((S)-tetrahydro-2H-pyran-3-ylamino)-9H-purin-9-yl)cyclohexanecarboxamide] | > 1000 |
| NC(=O)[C@H]1CC[C@@H](n2c(Nc3c(F)cc(Cl)cc3F)nc3cnc(N[C@H]4CCCOC4)nc32)CC1 [Example 203, (1R,4s)-4-(8-(4-chloro-2,6-difluorophenylamino)-2-((S)-tetrahydro-2H-pyran-3-ylamino)-9H-purin-9-yl)cyclohexanecarboxamide] | > 1000 |
| NC(=O)[C@H]1CC[C@@H](n2c(Nc3c(F)cc(Cl)cc3Cl)nc3cnc(N[C@H]4CCCOC4)nc32)CC1 [Example 204, (1R,4s)-4-(8-(2,4-dichloro-6-fluorophenylamino)-2-((S)-tetrahydro-2H-pyran-3-ylamino)-9H-purin-9-yl)cyclohexanecarboxamide] | > 1000 |
| NC(=O)[C@H]1CC[C@@H](n2c(Nc3c(Cl)cc(Cl)cc3Cl)nc3cnc(NCC4(CO)CC4)nc32)CC1 [Example 205, (1s,4s)-4-(2-((1-(hydroxymethyl)cyclopropyl)methylami-no)-8-(2,4,6-trichlorophenylamino)-9H-purin-9-yl)cyclohexanecarboxamide] | > 1000 |
| NC(=O)[C@H]1CC[C@@H](n2c(Nc3c(F)cc(Cl)cc3Cl)nc3cnc(NCC4(CO)CC4)nc32)CC1 [Example 206, (1s,4s)-4-(8-(2,4-dichloro-6-fluorophenylamino)-2-((1-(hydroxymethyl)cyclopropyl)methylami-no)-9H-purin-9-yl)cyclohexanecarboxamide] | > 1000 |
| NC(=O)[C@H]1CC[C@@H](n2c(Nc3c(F)cc(F)cc3F)nc3cnc(N[C@@H]4CC[C@@H](O)C4)nc32)CC1 [Example 207, (1S,4s)-4-(2-((1R,3R)-3-hydroxycyclopentylamino)-8-(2,4,6-trifluorophenylamino)-9H-purin-9-yl)cyclohexanecarboxamide] | > 1000 |
| NC(=O)[C@H]1CC[C@@H](n2c(Nc3c(F)cccc3Cl)nc3cnc(N[C@@H]4CC[C@@H](O)C4)nc32)CC1 [Example 208, (1S,4s)-4-(8-(2-chloro-6-fluorophenylamino)-2-((1R,3R)-3-hydroxycyclopentylamino)-9H-purin-9-yl)cyclohexanecarboxamide] | > 1000 |
| NC(=O)[C@H]1CC[C@@H](n2c(Nc3c(F)cccc3F)nc3cnc(N[C@@H]4CC[C@@H](O)C4)nc32)CC1 [Example 209, (1S,4s)-4-(8-(2,6-difluorophenylamino)-2-((1R,3R)-3-hydroxycyclopentylamino)-9H-purin-9-yl)cyclohexanecarboxamide] | > 1000 |
| NC(=O)[C@H]1CC[C@@H](n2c(Nc3c(F)cc(F)cc3Cl)nc3cnc(N[C@@H]4CC[C@@H](O)C4)nc32)CC1 [Example 210, (1S,4s)-4-(8-(2-chloro-4,6-difluorophenylamino)-2-((1R,3R)-3-hydroxycyclopentylamino)-9H-purin-9-yl)cyclohexanecarboxamide] | > 1000 |

The remaining lines, values ahead:

| IC50 [nM] | Compound |
| --- | --- |
| > 1000 | NC(=O)[C@H]1CC[C@@H](n2c(Nc3c(Cl)cccc3Cl)nc3cnc(N[C@@H]4CC[C@@H](O)C4)nc32)CC1 [Example 211, (1S,4s)-4-(8-(2,6-dichlorophenylamino)-2-((1R,3R)-3-hydroxycyclopentylamino)-9H-purin-9-yl)cyclohexanecarboxamide] |
| 250 to 500 | NC(=O)[C@H]1CC[C@@H](n2c(Nc3c(Cl)cc(Cl)cc3Cl)nc3cnc(N[C@@H]4CC[C@@H](O)C4)nc32)CC1 [Example 212, (1S,4s)-4-(2-((1R,3R)-3-hydroxycyclopentylamino)-8-(2,4,6-trichlorophenylamino)-9H-purin-9-yl)cyclohexanecarboxamide] |
| 250 to 500 | NC(=O)[C@H]1CC[C@@H](n2c(Nc3c(F)cc(Cl)cc3Cl)nc3cnc(N[C@@H]4CC[C@@H](O)C4)nc32)CC1 [Example 213, (1S,4s)-4-(8-(2,4-dichloro-6-fluorophenylamino)-2-((1R,3R)-3-hydroxycyclopentylamino)-9H-purin-9-yl)cyclohexanecarboxamide] |
| > 1000 | NC(=O)[C@H]1CC[C@@H](n2c(Nc3c(Cl)cc(F)cc3Cl)nc3cnc(N[C@@H]4CC[C@@H](O)C4)nc32)CC1 [Example 214, (1S,4s)-4-(8-(2,6-dichloro-4-fluorophenylamino)-2-((1R,3R)-3-hydroxycyclopentylamino)-9H-purin-9-yl)cyclohexanecarboxamide] |
| 250 to 500 | NC(=O)[C@H]1CC[C@@H](n2c(Nc3c(F)cc(Cl)cc3F)nc3cnc(N[C@@H]4CC[C@@H](O)C4)nc32)CC1 [Example 215, (1S,4s)-4-(8-(4-chloro-2,6-difluorophenylamino)-2-((1R,3R)-3-hydroxycyclopentylamino)-9H-purin-9-yl)cyclohexanecarboxamide] |
| > 1000 | NC(=O)[C@H]1CC[C@@H](n2c(Nc3ccc(Cl)c(F)c3F)nc3cnc(N[C@@H]4CC[C@@H](O)C4)nc32)CC1 [Example 216, (1S,4s)-4-(8-(4-chloro-2,3-difluorophenylamino)-2-((1R,3R)-3-hydroxycyclopentylamino)-9H-purin-9-yl)cyclohexanecarboxamide] |
| > 1000 | NC(=O)[C@H]1CC[C@@H](n2c(Nc3c(F)ccc(Cl)c3F)nc3cnc(N[C@@H]4CC[C@@H](O)C4)nc32)CC1 [Example 217, (1S,4s)-4-(8-(3-chloro-2,6-difluorophenylamino)-2-((1R,3R)-3-hydroxycyclopentylamino)-9H-purin-9-yl)cyclohexanecarboxamide] |
| > 1000 | NC(=O)[C@H]1CC[C@@H](n2c(Nc3c(F)ccc(F)c3F)nc3cnc(N[C@@H]4CC[C@@H](O)C4)nc32)CC1 [Example 218, (1S,4s)-4-(2-((1R,3R)-3-hydroxycyclopentylamino)-8-(2,3,6-trifluorophenylamino)-9H-purin-9-yl)cyclohexanecarboxamide] |
| > 1000 | NC(=O)[C@H]1CC[C@@H](n2c(Nc3ccc(Cl)cc3Cl)nc3cnc(N[C@@H]4CC[C@@H](O)C4)nc32)CC1 [Example 219, (1S,4s)-4-(8-(2,4-dichlorophenylamino)-2-((1R,3R)-3-hydroxycyclopentylamino)-9H-purin-9-yl)cyclohexanecarboxamide] |

— US11590139B2, “Substituted aminopurine compounds, compositions thereof, and methods of treatment therewith” (Signal Pharmaceuticals, LLC, priority 2014, dated 2023)
